Source: ChEMBL document CHEMBL1649393, “Synthesis and antimicrobial activity of thiosemicarbazides, s-triazoles and their Mannich bases bearing 3-chlorophenyl moiety” (2011)
≈ marks a conversion by molar mass, not a printed value.

Experiments:
Assay type in all cases: functional
[1] = tested on: Staphylococcus aureus; test: Antimicrobial activity against Staphylococcus aureus ATCC 25923 after 18 hrs by broth microdilution method; conditions: ATCC 25923, 18 h
[2] = tested on: Staphylococcus aureus; test: Antimicrobial activity against Staphylococcus aureus ATCC 6538 after 18 hrs by broth microdilution method; conditions: ATCC 6538, 18 h
[3] = tested on: Staphylococcus epidermidis; test: Antimicrobial activity against Staphylococcus epidermidis ATCC 12228 after 18 hrs by broth microdilution method; conditions: ATCC 12228, 18 h
[4] = tested on: Bacillus subtilis; test: Antimicrobial activity against Bacillus subtilis ATCC […] after 18 hrs by broth microdilution method
[5] = tested on: Bacillus cereus; test: Antimicrobial activity against Bacillus cereus ATCC 10876 after 18 hrs by broth microdilution method; conditions: ATCC 10876, 18 h
[6] = tested on: Micrococcus luteus; test: Antimicrobial activity against Micrococcus luteus ATCC 10240 after 18 hrs by broth microdilution method; conditions: ATCC 10240, 18 h
[7] = tested on: Escherichia coli; test: Antimicrobial activity against Escherichia coli ATCC 25922 after 18 hrs by broth microdilution method; conditions: ATCC 25922, 18 h
[8] = tested on: Klebsiella pneumoniae; test: Antimicrobial activity against Klebsiella pneumoniae ATCC 13883 after 18 hrs by broth microdilution method; conditions: ATCC 13883, 18 h
[9] = tested on: Proteus mirabilis; test: Antimicrobial activity against Proteus mirabilis ATCC 12453 after 18 hrs by broth microdilution method; conditions: ATCC 12453, 18 h, read-out: MIC
[10] = tested on: Staphylococcus aureus; test: Antimicrobial activity against Staphylococcus aureus ATCC 25923 assessed as >99.9 % reduction in CFU after 18 hrs by broth microdilution method; conditions: ATCC 25923, 18 h
[11] = tested on: Staphylococcus aureus; test: Antimicrobial activity against Staphylococcus aureus ATCC 6538 assessed as >99.9 % reduction in CFU after 18 hrs by broth microdilution method; conditions: ATCC 6538, 18 h
[12] = tested on: Staphylococcus epidermidis; test: Antimicrobial activity against Staphylococcus epidermidis ATCC 12228 assessed as >99.9 % reduction in CFU after 18 hrs by broth microdilution method; conditions: ATCC 12228, 18 h
[13] = tested on: Bacillus subtilis; test: Antimicrobial activity against Bacillus subtilis ATCC […] assessed as >99.9 % reduction in CFU after 18 hrs by broth microdilution method
[14] = tested on: Bacillus cereus; test: Antimicrobial activity against Bacillus cereus ATCC 10876 assessed as >99.9 % reduction in CFU after 18 hrs by broth microdilution method; conditions: ATCC 10876, 18 h
[15] = tested on: Micrococcus luteus; test: Antimicrobial activity against Micrococcus luteus ATCC 10240 assessed as >99.9 % reduction in CFU after 18 hrs by broth microdilution method; conditions: ATCC 10240, 18 h
[16] = tested on: Escherichia coli; test: Antimicrobial activity against Escherichia coli ATCC 25922 assessed as >99.9 % reduction in CFU after 18 hrs by broth microdilution method; conditions: ATCC 25922, 18 h
[17] = tested on: Klebsiella pneumoniae; test: Antimicrobial activity against Klebsiella pneumoniae ATCC 13883 assessed as >99.9 % reduction in CFU after 18 hrs by broth microdilution method; conditions: ATCC 13883, 18 h, read-out: MBC
[18] = tested on: Proteus mirabilis; test: Antimicrobial activity against Proteus mirabilis ATCC 12453 assessed as >99.9 % reduction in CFU after 18 hrs by broth microdilution method; conditions: ATCC 12453, 18 h, read-out: MBC

Row | Compound | MIC [1] [µg/mL] | MIC [2] [µg/mL] | MIC [3] [µg/mL] | MIC [4] [µg/mL] | MIC [5] [µg/mL] | MIC [6] [µg/mL] | MIC [7] [µg/mL] | MIC [8] [µg/mL] | MIC [9] [µg/mL] | MBC [10] [µg/mL] | MBC [11] [µg/mL] | MBC [12] [µg/mL] | MBC [13] [µg/mL] | MBC [14] [µg/mL] | MBC [15] [µg/mL] | MBC [16] [µg/mL] | MBC [17] [µg/mL] | MBC [18] [µg/mL]
1 | O=C(NNC(=S)Nc1ccccc1I)c1cccc(Cl)c1 | 31.2 (≈ 72.4 µM) | 31.2 (≈ 72.4 µM) | 31.2 (≈ 72.4 µM) | 15.6 (≈ 36.2 µM) | 31.2 (≈ 72.4 µM) | 31.2 (≈ 72.4 µM) | – | – | – | – | – | – | – | – | – | – | – | –
2 | S=c1[nH]nc(-c2cccc(Cl)c2)n1-c1ccccc1Br | > 1000 | > 1000 | 125 (≈ 341 µM) | 1000 (≈ 2730 µM) | 1000 (≈ 2730 µM) | > 1000 | – | – | – | – | – | – | – | – | – | – | – | –
3 | O=C(NNC(=S)Nc1ccc(F)cc1)c1cccc(Cl)c1 | > 1000 | > 1000 | > 1000 | > 1000 | > 1000 | > 1000 | – | – | – | – | – | – | – | – | – | – | – | –
4 | CC1(C)S[C@@H]2[C@H](NC(=O)[C@H](N)c3ccccc3)C(=O)N2[C@H]1C(=O)O [AMPICILLIN] | 2 (≈ 5.72 µM) | 3 (≈ 8.59 µM) | 6 (≈ 17.2 µM) | 3 (≈ 8.59 µM) | 62.5 (≈ 179 µM) | 6 (≈ 17.2 µM) | – | – | – | – | – | – | – | – | – | – | – | –
5 | S=c1[nH]nc(-c2cccc(Cl)c2)n1-c1ccccc1I | > 1000 | > 1000 | > 1000 | > 1000 | > 1000 | > 1000 | – | – | – | – | – | – | – | – | – | – | – | –
6 | O=C(NNC(=S)Nc1ccccc1)c1cccc(Cl)c1 | 125 (≈ 409 µM) | 125 (≈ 409 µM) | 125 (≈ 409 µM) | 125 (≈ 409 µM) | 125 (≈ 409 µM) | 125 (≈ 409 µM) | – | – | – | – | – | – | – | – | – | – | – | –
7 | S=c1n(CN2CCCC2)nc(-c2cccc(Cl)c2)n1-c1ccc(I)cc1 | 125 (≈ 252 µM) | 250 (≈ 503 µM) | 250 (≈ 503 µM) | 125 (≈ 252 µM) | 125 (≈ 252 µM) | 125 (≈ 252 µM) | > 1000 | 1000 (≈ 2010 µM) | > 1000 | 1000 (≈ 2010 µM) | 1000 (≈ 2010 µM) | > 1000 | 1000 (≈ 2010 µM) | > 1000 | > 1000 | > 1000 | > 1000 | > 1000
8 | Fc1cccc(F)c1-n1c(-c2cccc(Cl)c2)n[nH]c1=S | 250 (≈ 772 µM) | 250 (≈ 772 µM) | 250 (≈ 772 µM) | 500 (≈ 1540 µM) | 250 (≈ 772 µM) | 125 (≈ 386 µM) | – | – | – | – | – | – | – | – | – | – | – | –
9 | Fc1ccc(-n2c(-c3cccc(Cl)c3)nn(CN3CCCC3)c2=S)cc1 | 125 (≈ 321 µM) | 125 (≈ 321 µM) | 125 (≈ 321 µM) | 125 (≈ 321 µM) | 250 (≈ 643 µM) | 125 (≈ 321 µM) | 500 (≈ 1290 µM) | 500 (≈ 1290 µM) | 500 (≈ 1290 µM) | 250 (≈ 643 µM) | 250 (≈ 643 µM) | 500 (≈ 1290 µM) | 250 (≈ 643 µM) | > 1000 | 500 (≈ 1290 µM) | 500 (≈ 1290 µM) | 500 (≈ 1290 µM) | 1000 (≈ 2570 µM)
10 | Cc1ccc(-n2c(-c3cccc(Cl)c3)n[nH]c2=S)cc1 | > 1000 | > 1000 | > 1000 | > 1000 | > 1000 | > 1000 | – | – | – | – | – | – | – | – | – | – | – | –
11 | O=C(NNC(=S)Nc1cc(F)ccc1F)c1cccc(Cl)c1 | 62.5 (≈ 183 µM) | 62.5 (≈ 183 µM) | 125 (≈ 366 µM) | 125 (≈ 366 µM) | 125 (≈ 366 µM) | 62.5 (≈ 183 µM) | – | – | – | – | – | – | – | – | – | – | – | –
12 | S=c1[nH]nc(-c2cccc(Cl)c2)n1-c1ccccc1 | > 1000 | > 1000 | > 1000 | 125 (≈ 434 µM) | > 1000 | > 1000 | – | – | – | – | – | – | – | – | – | – | – | –
13 | S=c1[nH]nc(-c2cccc(Cl)c2)n1-c1ccc(Br)cc1 | 31.2 (≈ 85.2 µM) | 31.2 (≈ 85.2 µM) | 31.2 (≈ 85.2 µM) | 15.6 (≈ 42.6 µM) | 15.6 (≈ 42.6 µM) | 31.2 (≈ 85.2 µM) | – | – | – | – | – | – | – | – | – | – | – | –
14 | O=C(NNC(=S)Nc1c(F)cccc1F)c1cccc(Cl)c1 | 125 (≈ 366 µM) | 250 (≈ 731 µM) | 250 (≈ 731 µM) | 250 (≈ 731 µM) | 250 (≈ 731 µM) | 250 (≈ 731 µM) | – | – | – | – | – | – | – | – | – | – | – | –
15 | Fc1ccc(-n2c(-c3cccc(Cl)c3)n[nH]c2=S)cc1 | > 1000 | > 1000 | > 1000 | > 1000 | > 1000 | > 1000 | – | – | – | – | – | – | – | – | – | – | – | –
